Results taken from patent publication EP4703359A1 (Shanghai Simr Biotechnology Co., Ltd., priority 2023, dated 2024).

Legend:
α2-GABAA receptor [1] = biological target: T1, α2-GABAA receptor (Homo sapiens, UniProt P18507+P47869); assay: Whole-cell patch-clamp electrophysiology, positive allosteric modulatory activity in α2-GABAAR-HEK293 cells; type: cell-based; conditions: compound 100 nM, GABA 0.10 to 0.11 µM (approximately EC7-8), normalized to reference compound CVL-865 (= 100%); for Emax at 0.1 µM: read-out: α2-GABAAR Positive allosteric modulatory activity
T1 construct: expressed in transfected cells
Description: (§1) The α subunit, β subunit, and γ subunit are indispensable for forming a fully functional GABAA receptor. In this example, HEK293 cells stably expressing α2-GABAA receptors (α2-GABAAR) were constructed and screened respectively via liposome transfection (Felgner, P.L., et al. Proceedings of the National Academy of Sciences, 1987, 84: 7413-7417). The α2-GABAAR-HEK293 cell model co-expresses the α2 subunit (protein sequence referenced under GenBank accession number: NM_000807.4), β3 subunit (protein sequence referenced under GenBank accession number: NM_000814.5), and γ2 subunit (protein sequence referenced under GenBank accession number: NM_000816.3).
(§2) The above cell lines were subcultured. α2-GABAAR-HEK293 cells were amplified for testing the affinity of compounds to the benzodiazepine (BZD) site of GABAA receptors. Some of the α2-GABAAR-HEK293 cells in suspension during subculturing were plated on glass slides pre-treated with Poly-D-Lysine for electrophysiological testing (method reference: Patent CN 107344936 A, paragraph 0586).
The positive modulatory activity of the test drug on the α2-GABAA receptor was assessed using electrophysiological methods. The specific approach is as follows:
With regards to the concentration of the compound, the final concentration of all compounds used in the screening was 100 nM. For cell lines expressing α2-GABAA receptors, the GABA concentration was 0.10 to 0.11 µM (approximately EC7-8). Electrophysiological experiments were conducted using the whole-cell patch-clamp technique, which can be referenced to the method reported in the literature (Nickolls, S. A., et al. *British Journal of Pharmacology*, 2018, 175: 708-725). The composition of the extracellular solution (ECS) for electrophysiology was as follows: 150 mM NaCl, 5 mM KCl, 2.5 mM CaCl2, 1 mM MgCl2, 10 mM HEPES, and 10 mM glucose (pH 7.4). The intracellular solution (ICS) for electrophysiology was formulated as follows: 140 mM CsCl, 11 mM EGTA, 10 mM HEPES, 2 mM CaCl2, 1 mM MgCl2, 4 mM MgATP, and 2 mM TEA (pH 7.3). GABA (γ-aminobutyric acid) powder was dissolved in pure water to prepare a stock solution, which was subsequently diluted in ECS. The compound was initially dissolved in dimethyl sulfoxide to prepare a 4 mM stock solution, followed by stepwise dilution into GABA-ECS at corresponding concentrations. All solutions were freshly prepared prior to electrophysiological testing.
Electrophysiological signals were acquired using an EPC 10 amplifier and PatchMaster software (HEKA) or an Axon 700B amplifier and Clampex software (AXON). The recording electrode was pulled from borosilicate glass, with an electrode resistance of 4 to 6 MΩ. Extracellular administration was performed using the ALA-VC-8PG™ system. A single independently growing cell was selected. After forming a tight seal between the glass electrode and the cell membrane, the membrane was ruptured to establish the whole-cell configuration. The cell membrane potential was clamped at -60 mV and recorded in Gap-free mode. During the test, extracellular fluid was first applied externally for approximately 20 seconds. After the baseline (Iprebaseline) was stabilized, the extracellular solution was switched to GABA-ECS. At this point, the current induced by GABA (Igaba) can be detected. After approximately 10 to 20 seconds, once the current had stabilized, the extracellular solution was switched to a mixture of the compound and GABA-ECS until the current induced by both the compound and GABA (Itreatment) could be detected. Finally, the solution was switched to extracellular fluid, and the recording was terminated after 20 to 40 seconds. Only cells with a stable baseline, an absolute control current magnitude (Igaba - Iprebaseline) greater than 40 pA, and a relatively stable current within 10 to 20 seconds were used for compound testing. […]

α2-GABAA receptor [2] = biological target: T1, α2-GABAA receptor; assay: Radioactive ligand (3H-flunitrazepam) competitive binding assay, BZD site of membrane proteins of α2-GABAAR-HEK293 cells; conditions: competition with 1 nM 3H-flunitrazepam; HEK293 membranes expressing α2, β3, γ2 subunits; Ki calculated from IC50; read-out: α2 Ki
Description: as §1, §2
The affinity of the compound for the α2-GABAA receptor was determined by competing with ^3H-flunitrazepam (isotope ^3H-labeled flunitrazepam) for binding to the BZD site of membrane proteins in HEK293 cells stably expressing human α2-GABAAR.
Membrane preparation: Cells were suspended in 50 mM Tris-HCl buffer (pH=7.4), homogenized on ice using a homogenizer for 20 seconds with 10 repetitions, and centrifuged at 4°C, 1000g for 10 minutes. The supernatant was collected, and the above steps were repeated. The supernatant was centrifuged at 4°C (33,800 × g; Thermo, rotor: A27-8x50) for 60 minutes, and the pellet was resuspended in Tris buffer (50 mM Tris-HCl, 10 mM MgCl2, 0.5 mM EDTA, 10% glycerol). The protein concentration was determined using the bicinchoninic acid (BCA) protein assay based on the copper ion reduction method (BCA kit purchased from Pierce (Annoron)). Aliquots of 1 mL were prepared and stored at -80°C.
Radioactive ligand competitive binding assay: This assay was conducted in a 200 µL system (96-well plate), containing 100 µL of cell membrane. The concentration of ^3H-flunitrazepam was 1 nM, and the concentration of the test compound ranged from […]. Flumazenil was used as a control. The low signal control well (Low Control, LC) was added with 1 µL of 2 mM flumazenil (final concentration 10 µM), while the high signal control well (High Control, HC) was added with 1 µL of dimethyl sulfoxide. The final concentration of the target membrane protein was 5 µg/well. All test compound stock solutions were prepared as 10 mM solutions in dimethyl sulfoxide. The working concentration of the samples was prepared by diluting all samples to 0.2 mM with dimethyl sulfoxide, followed by a 4-fold serial dilution to obtain a total of 8 concentration gradients. The 96-well plate was sealed with sealing film and then incubated on a shaker at room temperature for 1 hour. The GF/C filter plate was also soaked with a soaking buffer (0.3% PEI (polyethyleneimine, purchased from: Sigma-Aldrich, model: P314), stored at 4°C) for at least 0.5 hours. After the incubation was completed, the mixture was collected onto a GF/C filter plate using a cell harvester and washed four times with wash buffer (50 mM Tris-HCl, pH 7.4, stored at 4°C). After drying in a 50°C oven for 1 hour, the dried GF/C filter plate was sealed at the bottom with a film. The residual radioactivity on the filter membrane was detected using liquid scintillation counting. Each well was filled with 50 µL of scintillation fluid and sealed. Readings were taken using a Microbeta^2 (microplate counter, purchased from PerkinElmer, model: CNLL0153). The inhibitory activity of the test sample on the binding of ^3H-flunitrazepam to GABAA receptor membrane protein was calculated. […]

SMILES	Emax at 0.1 µM (α2-GABAA receptor [1])	Ki (α2-GABAA receptor [2])	α2-GABAAR Positive allosteric modulatory activity (α2-GABAA receptor [1])
COc1ccc(C#N)cc1-c1cccn2c(N)c(C(=O)NC3CC(C)C3)nc12 (stereo not drawn) [Example 34, 3-Amino-8-(5-cyano-2-methoxyphenyl)-N-(3-methylcyclobutyl)imidazo[1,2-a]pyridine-2-carboxamide]	101%	5.07 nM	
CCCNC(=O)c1nc2c(-c3cccc(C#N)c3F)cccn2c1N [Example 57, 3-Amino-8-(3-cyano-2-fluorophenyl)-N-propylimidazo[1,2-a]pyridine-2-carboxamide]	167%	3.32 nM	
CCCNC(=O)c1nc2c(-c3cccc(C)c3)cccn2c1N [Example 48, 3-Amino-N-propyl-8-(3-methylphenyl)imidazo[1,2-a]pyridine-2-carboxamide]	71%	14.2 nM	
CCCNC(=O)c1nc2c(-c3cc(C)ccc3F)cccn2c1N [Example 50, 3-Amino-8-(2-fluoro-5-methylphenyl)-N-propylimidazo[1,2-a]pyridine-2-carboxamide]	104%	3.95 nM	
CCCNC(=O)c1nc2c(-c3cc(F)ccc3F)cccn2c1N [Example 52, 3-Amino-8-(2,5-difluorophenyl)-N-propylimidazo[1,2-a]pyridine-2-carboxamide]	63%	11.2 nM	
CCCNC(=O)c1nc2c(-c3cccc(C(F)(F)F)c3)cccn2c1N [Example 47, 3-Amino-N-propyl-8-(3-(trifluoromethyl)phenyl)imidazo[1,2-a]pyridine-2-carboxamide]		35.2 nM	
COc1cccc(F)c1-c1c(F)ccn2c(N)c(C(=O)NCCC(F)(F)F)nc12 [Example 125, 3-Amino-7-fluoro-8-(2-fluoro-6-methoxyphenyl)-N-(3,3,3-trifluoropropyl)propylimidazo[1,2-a]pyridine-2-carboxamide]			70%

Further lines, with some results ahead:

Emax at 0.1 µM (α2-GABAA receptor [1])	Ki (α2-GABAA receptor [2])	SMILES	α2-GABAAR Positive allosteric modulatory activity (α2-GABAA receptor [1])
103%	34.5 nM	CCCNC(=O)c1nc2c(-c3cc(C(F)(F)F)ccc3OC)cccn2c1N [Example 58, 3-Amino-8-(2-methoxy-5-(trifluoromethyl)phenyl)-N-propylimidazo[1,2-a]pyridine-2-carboxamide]	
70%	30.8 nM	CCCNC(=O)c1nc2c(-c3cc(OC)ccc3OC)cccn2c1N [Example 69, 3-Amino-8-(2,5-dimethoxyphenyl)-N-propylimidazo[1,2-a]pyridine-2-carboxamide]	
130%	7.43 nM	CCCNC(=O)c1nc2c(-c3cc(-c4cnnc5c4ncn5CC)ccc3OC)cccn2c1N [Example 71, 3-Amino-8-(5-(7-ethyl-7H-imidazo[4,5-c]pyridazin-4-yl)-2-methoxyphenyl)-N-propylimidazo[1,2-a]pyridine-2-carboxamide]	
	2.44 nM	CCCNC(=O)c1nc2c(-c3cccc(Cl)c3F)cccn2c1N [Example 66, 3-Amino-8-(3-chloro-2-fluorophenyl)-N-propylimidazo[1,2-a]pyridine-2-carboxamide]	
94%		CCCNC(=O)c1nc2c(-c3c(F)ccc4ncoc34)cccn2c1N [Example 100, 3-Amino-8-(6-fluorobenzoxazol-7-yl)-N-propylimidazopyridine-2-carboxamide]	
124%		CCCNC(=O)c1nc2c(-c3cnccc3OC)c(F)ccn2c1N [Example 114, 3-Amino-7-fluoro-8-(4-methoxypyridin-3-yl)-N-propylimidazo[1,2-a]pyridine-2-carboxamide]	
27%		CCCNC(=O)c1nc2c(-c3cc4cnn(C)c4cc3OC)cccn2c1N [Example 95, 3-Amino-8-(6-methoxy-1-methyl-1H-indazol-5-yl)-N-propylimidazo[1,2-a]pyridine-2-carboxamide]	
44%		CCCNC(=O)c1nc2c(-c3cnoc3C)cccn2c1N [Example 141, 3-Amino-8-(5-methyl-1,2-oxazol-4-yl)-N-propylimidazo[1,2-a]pyridine-2-carboxamide]	
63%		CCCNC(=O)c1nc2c(-c3cncc(C#N)c3)cccn2c1N [Example 88, 3-Amino-8-(5-cyanopyridin-3-yl)-N-propylimidazo[1,2-a]pyridine-2-carboxamide]	
